Test results: publication PMC4728560 (Scientific Reports, 2016)

System: cBidmt1+Bax
Assay: Control liposome permeabilization without Bcl-xL, cBidmt1+Bax
Assay type: biochemical
Conditions: 320 nM pH9 treated TCTP, 100 nM Bax, 20 nM cBidmt1
Procedure: (A–E) in vitro reconstitution assay on liposome permeabilization. […] The treated Bcl-xL was then added to reactions containing ANTS-DPX liposomes, 100 nM Bax and 20 nM of either cBid (A,B) or cBidmt1(C,D) at pH 7. Liposome permeabilization was quantified by fluorescence after 5h incubation at 37 °C where 100% release was defined as the fluorescence change due to lipid solubilization with 1% Triton X-100. […] Error bars, std. dev. n = 3. To compare between the TCTP treated groups and the Control group statistically, two-way ANOVA test was performed for (A–D) and one-way ANOVA test was performed for (E). […] Colored asterisks above each data point indicate the statistical significance (*p < 0.05; **p < 0.01, no asterisks if p ≥ 0.05). A complete statistical analysis is provided in Supplementary Table 2–4. (F) Permeabilization assays of mitochondrial membrane by tBid and Bax assessing cytochrome c release. […] Cyto c extra-mito: in the supernatant, analysed by Western blot. […]
Figure 10 A,B) or cBid mt1 (Supplementary Figure 10 C,D) at pH 7 to quantify the activity of Bcl-xL inhibition of liposome permeablization. […]
the Control group (No TCTP) were analyzed through Dunnett's multiple comparisons test at each sample condition (Bcl-XL concentration) for statistical significance. […]
Statistical significance was analyzed through Dunnett's multiple comparisons test. […]

Substance: TCTP: Translationally Controlled Tumor Protein (TCTP/tpt1), recombinant full-length
- effect on cBidmt1-Bax induced permeabilization not containing Bcl-xL: no effect
